Here are results for two compounds from US5132111A (priority 1990, dated 1992).

In the assay the test system is cultured rat pituitary cells. It is filed as cell-based.

Non-standard residues stand in square brackets, D forms with d. Residues, ends and D or L forms follow the SMILES beside them. Nle = CCCC[C@H](N)C(=O)O

`CCCC[C@H](NC(=O)[C@@H](NC(=O)[C@H](CC(C)C)NC(=O)[C@H](CC(=O)O)NC(=O)[C@H](CC(C)C)NC(=O)[C@H](CO)NC(=O)[C@@H](NC(=O)[C@@H]1CCCN1C(=O)[C@@H]1CCCN1C(=O)[C@@H](N)CCC(=O)O)[C@@H](C)CC)[C@@H](C)O)C(=O)N[C@@H](Cc1c[nH]cn1)C(=O)N[C@@H](CC(C)C)C(=O)N[C@@H](CC(C)C)C(=O)N[C@@H](CCCNC(=N)N)C(=O)N[C@@H](CCC(=O)O)C(=O)N[C@H](C(=O)N[C@@H](CC(C)C)C(=O)N[C@@H](CCC(=O)O)C(=O)N[C@@H](CCSC)C(=O)N[C@@H](C)C(=O)N[C@@H](CCCNC(=N)N)C(=O)N[C@@H](C)C(=O)N[C@@H](CCC(=O)O)C(=O)N[C@@H](CCC(N)=O)C(=O)N[C@@H](CC(C)C)C(=O)N[C@@H](C)C(=O)N[C@@H](CCC(=O)O)C(=O)N[C@@H](CCC(N)=O)C(=O)N[C@@H](C)C(=O)N[C@@H](Cc1c[nH]cn1)C(=O)N[C@@H](CO)C(=O)N[C@@H](CC(N)=O)C(=O)N[C@@H](CCCNC(=N)N)C(=O)N[C@@H](CCCNC(=N)N)C(=O)N[C@@H](CC(C)C)C(=O)N[C@@H](CCSC)C(=O)N[C@@H](CCC(=O)O)C(=O)N[C@H](C(=O)N[C@H](C(N)=O)[C@@H](C)CC)[C@@H](C)CC)C(C)C` (H-EPPISLDLT[Nle]HLLREVLEMARAEQLAEQAHSNRRLMEII-NH2): the “secretion of ACTH” value is listed as “stimulates” and the “secretion of β-endorphin (β-END-LI)” value is recorded as “stimulates”.

`CCCC[C@H](NC(=O)[C@H](CCC(=O)O)NC(=O)[C@H](CCCNC(=N)N)NC(=O)[C@H](CC(C)C)NC(=O)[C@H](CC(C)C)NC(=O)[C@H](Cc1c[nH]cn1)NC(=O)[C@H](Cc1ccccc1)NC(=O)[C@@H](NC(=O)[C@H](CC(C)C)NC(=O)[C@H](CC(=O)O)NC(=O)[C@H](CC(C)C)NC(=O)[C@H](CO)NC(=O)[C@@H](NC(=O)[C@@H]1CCCN1C(=O)[C@@H]1CCCN1C(=O)[C@H](CCC(=O)O)NC(=O)[C@@H](N)CCC(N)=O)[C@@H](C)CC)[C@@H](C)O)C(=O)N[C@@H](CC(C)C)C(=O)N[C@@H](CCC(=O)O)C(=O)N[C@@H](CCSC)C(=O)N[C@H](C(=O)N[C@@H](CCCNC(=N)N)C(=O)N[C@@H](C)C(=O)N[C@@H](CC(=O)O)C(=O)N[C@@H](CCC(N)=O)C(=O)N[C@@H](CC(C)C)C(=O)N[C@@H](C)C(=O)N[C@@H](CCC(N)=O)C(=O)N[C@@H](CCC(N)=O)C(=O)N[C@@H](C)C(=O)N[C@@H](Cc1c[nH]cn1)C(=O)N[C@@H](CO)C(=O)N[C@@H](CC(N)=O)C(=O)N[C@@H](CCCNC(=N)N)C(=O)N[C@@H](CCCNC(=N)N)C(=O)N[C@@H](Cc1ccc(O)cc1)C(=O)N[C@@H](CC(C)C)C(=O)N[C@@H](CC(=O)O)C(=O)N[C@@H](CCC(=O)O)C(=O)N[C@@H](C)C(N)=O)[C@@H](C)O` (H-QEPPISLDLTFHLLRE[Nle]LEMTRADQLAQQAHSNRRYLDEA-NH2): the “secretion of ACTH” value is listed as “stimulates” and the “secretion of β-endorphin (β-END-LI)” value is reported as “stimulates”.
